Results from USRE39887E1, “Dehydrodidemnin B” (Pharma Mar, S.A., priority 1989, dated 2007).
Converted amounts (≈) assume the structure as drawn. Starred links: 1 amine or outer side, 2 acyl side, 3 side chain; linkers in the order of their positions; H or OH if unused. Positions of bridges follow the written chain, without caps; N, C: chain ends. Non-standard residues stand in square brackets, D forms with d. Residues, ends and D or L forms follow the SMILES beside them. *: point of attachment. X1 = CC[C@H](C)[C@@H](N[*:1])[C@@H](O)CC(=O)O[C@H](C(=O)[C@H](C)C(=O)[*:2])C(C)C; NMeY = CN[C@@H](Cc1ccc(O)cc1)C(=O)O; dNMeL = CN[C@H](CC(C)C)C(=O)O; Pyruvoyl = CC(=O)C(=O)*

Legend:
L-1210 cells = experiment: Growth inhibition of L-1210 cells; type: cell-based, mouse
Protocol: 2.1 Assay Against L-1210 Cells (Ascetic Fluid from DBA/2mouse)
(§1) L-1210 cells were seeded into 16 mm wells at 1×10^4 cells per well in 1 mL aliquots of MEN 10C containing the indicated concentrations of drug. All determinations were carried out in triplicate. Cells were counted after three drugs was counted daily to ensure that the cells remained in exponential growth over the period of observation.

P-388 cells = experiment: Growth inhibition of P-388 cells; type: cell-based, mouse; conditions: for % Inhibition / net increase in cell number: three days
Protocol: 2.2 Assay Against P-388 Cells (Lymphoid Neoplasm from DBA/2mouse)
as §1, with “P-388” for “L-1210”, “MEM” for “MEN”, “determination” for “determinations”, “days of incubation. A separate set of cultures within drug” for “drugs”

L-929 cells = experiment: Growth inhibition of L-929 cells; type: cell-based, mouse; conditions: for % Inhibition / net increase in cell number: 4 days after seeding
Protocol: 2.3 Assay Against L-929 Cells (Mouse Areolar and Adipose Tissue)
(§2) L-929 cells were seeded into 16 mm wells at 1×10^4 cells per well in 1 mL aliquots of MEM 10C. The following day, medium was replaced with 0.5 mL aliquots of MEM 10C. The following day, the medium was replaced with 0.5 mL aliquots of MEM 10C containing the indicated concentrations of drug. All determinations were carried out in triplicate. A separate set of cultures without drug was counted daily to ensure that the cells remained in exponential growth over the period of observation. Cells were typsinized and counted 4 days after seeding.

B-16 cells = experiment: Growth inhibition of B-16 cells; type: cell-based, mouse; conditions: for % Inhibition / net increase in cell number: 4 day after seeding
Protocol: 2.4 Assay Against B-16 (Mouse Melanoma)
B-16 cells were seeded into 16 mm wells at 1×10^4 cells per well in 1 mL aliquots of MEM 10C […] were carried out in triplicate. A separate set of cultures without drug was counted daily to ensure that the cells remained in exponential growth over the period for observation. Cells were typsinized and counted 4 day after seeding.

A-549 cells = experiment: Growth inhibition of A-549 cells; type: cell-based, human; conditions: for % Inhibition / net increase in cell number: 4 days after seeding
Protocol: 2.5 Assay Against A-549 Cells (Human Lung Carcinoma)
as §2, with “A-549” for “L-929”, “1” for “1 mL aliquots of MEM 10C. The following day, medium was replaced with 0.5”, “trypsinated” for “typsinized”

HeLa cells = experiment: Growth inhibition of HeLa cells; type: cell-based, human; conditions: HeLa cells in vitro
Protocol: 2.6 Assay Against HeLa Cells (Human Cervix Epithelioid Carcinoma)
as §2, with “HeLa” for “L-929”, “1” for “1 mL aliquots of MEM 10C. The following day, medium was replaced with 0.5”, “trypsinized” for “typsinized”

KB cells = experiment: Growth inhibition of KB cells; type: cell-based, human; conditions: for % Inhibition / net increase in cell number: KB
[1] = tested on: Herpes simplex virus, type 1; experiment: Inhibition of HSV-1 replication in CV-1 cells; type: cell-based; design: net virus produced / % Inhibition: dose or concentration left out as unconfirmed; conditions: HSV-1 in CV-1 cells; for % Inhibition / net virus produced: 24 hours after infection
Protocol: 2.8 Assay Against HSV-1 (Herpes Simplex Virus Type-1)
16 mm diameter wells were seeded each with 2×10^5 CV-1 cells in 1 mL aliquots of MEM 10C. Four days after, cells were infected with HSV-1 at 10C PFU per well. After adsorption for 1.5 hours, the inoculum was replaced in pairs of wells with 0.5 mL aliquots of MEM 5C containing the indicated concentrations of drug. Cells from two wells without drug were scraped into the medium and frozen 4 hours after infection to provide a baseline for calculating new virus production. The average of these samples was 2.5×10^5+1.2×10^6 PFU per mL. The remaining samples were collected 24 hours after infection.

[2] = tested on: CV-1 cells (monkey kidney cells); experiment: Cytotoxicity to CV-1 cells; type: cell-based
[3] = tested on: P-388 mouse leukemia cells; experiment: P-388 in vivo activity; conditions: QD 1-9, IP
[4] = tested on: Lewis lung carcinoma cells; experiment: Lewis lung in vivo activity; conditions: QD 1-9, IP
B-16 melanoma cells = experiment: B-16 melanoma in vivo activity; design: species or system mouse; conditions: QD 1-9, IP; for B-16 Melanoma % T/C: significant activity T/C ≧ 125
[5] = Immunosuppressive / immunomodulator activity
murine T-cells = experiment: Growth of murine T-cells
murine B-cells = experiment: Growth of murine B-cells
murine cells = experiment: Mixed lymphocyte reaction
[6] = Montgomery et al., Transplantation, 40, 49-56 (1985); cited from earlier work
human lymphocytes = conditions: compared with other didemnin compounds; Montgomery et al. (1987); cited from earlier work

CC[C@H](C)[C@H]1NC(=O)[C@@H](NC(=O)[C@@H](CC(C)C)N(C)C(=O)[C@@H]2CCCN2C(=O)C(C)=O)[C@@H](C)OC(=O)[C@H](Cc2ccc(OC)cc2)N(C)C(=O)[C@@H]2CCCN2C(=O)[C@H](CC(C)C)NC(=O)[C@@H](C)C(=O)[C@H](C(C)C)OC(=O)C[C@@H]1O [DDB, dehydrodidemnin B] (Pyruvoyl-P[dNMeL]T[X1]LP[NMeY](Me); ester 3-C)
% Inhibition (L-1210 cells; L-1210, 0.05 ng/mL DDB): 7%
net increase in cell number (L-1210 cells; L-1210, 0.05 ng/mL DDB): 2.7 × 10^5
% Inhibition (L-1210 cells; L-1210, 0.1 ng/mL DDB): 7%
net increase in cell number (L-1210 cells; L-1210, 0.1 ng/mL DDB): 2.7 × 10^5
% Inhibition (L-1210 cells; L-1210, 0.2 ng/mL DDB): 28%
net increase in cell number (L-1210 cells; L-1210, 0.2 ng/mL DDB): 2.1 × 10^5
% Inhibition (L-1210 cells; L-1210, 0.5 ng/mL DDB): 66%
net increase in cell number (L-1210 cells; L-1210, 0.5 ng/mL DDB): 1.0 × 10^5
% Inhibition (L-1210 cells; L-1210, 1 ng/mL DDB): 91%
net increase in cell number (L-1210 cells; L-1210, 1 ng/mL DDB): 2.5 × 10^5
% Inhibition (L-1210 cells; L-1210, 2 ng/mL DDB): 98%
net increase in cell number (L-1210 cells; L-1210, 2 ng/mL DDB): 6.3 × 10^5
IC50 (L-1210 cells; L-1210 cells in vitro): 0.3 ng/mL (≈ 0.27 nM)
% Inhibition (P-388 cells; P-388, 0.12 ng/mL DDB): 29%
net increase in cell number (P-388 cells; P-388, 0.12 ng/mL DDB): 3.97 × 10^5
% Inhibition (P-388 cells; P-388, 0.25 ng/mL DDB): 77%
net increase in cell number (P-388 cells; P-388, 0.25 ng/mL DDB): 1.27 × 10^5
% Inhibition (P-388 cells; P-388, 0.5 ng/mL DDB): 92%
net increase in cell number (P-388 cells; P-388, 0.5 ng/mL DDB): 4.47 × 10^5
IC50 (P-388 cells; P-388 cells in vitro): 0.175 ng/mL (≈ 0.158 nM)
% Inhibition (L-929 cells; L-929, 1 ng/mL DDB): 27%
net increase in cell number (L-929 cells; L-929, 1 ng/mL DDB): 2.31 × 10^5
% Inhibition (L-929 cells; L-929, 2.5 ng/mL DDB): 64%
net increase in cell number (L-929 cells; L-929, 2.5 ng/mL DDB): 1.13 × 10^5
% Inhibition (L-929 cells; L-929, 5 ng/mL DDB): 84%
net increase in cell number (L-929 cells; L-929, 5 ng/mL DDB): 5 × 10^5
IC50 (L-929 cells; L-929 cells in vitro): 1.9 ng/mL (≈ 1.71 nM)
% Inhibition (B-16 cells; B-16, 0.12 ng/mL DDB): 25%
net increase in cell number (B-16 cells; B-16, 0.12 ng/mL DDB): 1.27 × 10^5
% Inhibition (B-16 cells; B-16, 0.16 ng/mL DDB): 0%
net increase in cell number (B-16 cells; B-16, 0.16 ng/mL DDB): 1.71 × 10^5
% Inhibition (B-16 cells; B-16, 0.25 ng/mL DDB): 54%
net increase in cell number (B-16 cells; B-16, 0.25 ng/mL DDB): 8.25 × 10^5
% Inhibition (B-16 cells; B-16, 0.5 ng/mL DDB): 74%
net increase in cell number (B-16 cells; B-16, 0.5 ng/mL DDB): 4.50 × 10^4
% Inhibition (B-16 cells; B-16, 1.0 ng/mL DDB): 83%
net increase in cell number (B-16 cells; B-16, 1.0 ng/mL DDB): 2.88 × 10^4
IC50 (B-16 cells; B-16 cells in vitro): 0.225 ng/mL (≈ 0.203 nM)
% Inhibition (A-549 cells; A-549, 0.25 ng/mL DDB): 41%
net increase in cell number (A-549 cells; A-549, 0.25 ng/mL DDB): 4.80 × 10^4
% Inhibition (A-549 cells; A-549, 0.50 ng/mL DDB): 50%
net increase in cell number (A-549 cells; A-549, 0.50 ng/mL DDB): 4.00 × 10^4
% Inhibition (A-549 cells; A-549, 1.0 ng/mL DDB): 68%
net increase in cell number (A-549 cells; A-549, 1.0 ng/mL DDB): 2.50 × 10^4
% Inhibition (A-549 cells; A-549, 2.5 ng/mL DDB): 84%
net increase in cell number (A-549 cells; A-549, 2.5 ng/mL DDB): 1.30 × 10^4
IC50 (A-549 cells; A-549 cells in vitro): 0.5 ng/mL (≈ 0.45 nM)
IC50 (HeLa cells): 0.5 ng/mL (≈ 0.45 nM)
IC50 (KB cells; KB cells in vitro): 5.6 ng/mL (≈ 5.04 nM)
% Inhibition (KB cells; 2.5 ng/mL DDB): 0%
net increase in cell number (KB cells; 2.5 ng/mL DDB): 4.57 × 10^4
% Inhibition (KB cells; 5 ng/mL DDB): 46%
net increase in cell number (KB cells; 5 ng/mL DDB): 2.40 × 10^4
% Inhibition (KB cells; 10 ng/mL DDB): 77%
net increase in cell number (KB cells; 10 ng/mL DDB): 1.02 × 10^4
IC50 [1]: 60 ng/mL (≈ 54 nM)
% Inhibition ([1]; 0.03 DDB): 16%
net virus produced ([1]; 0.03 DDB): 3.8 × 10^8 PFU/mL
% Inhibition ([1]; 0.1 DDB): 67%
net virus produced ([1]; 0.1 DDB): 1.5 × 10^8 PFU/mL
% Inhibition ([1]; 0.3 DDB): 96%
net virus produced ([1]; 0.3 DDB): 1.9 × 10^8 PFU/mL
% Inhibition ([1]; 1 DDB): 100%
net virus produced ([1]; 1 DDB): 0 PFU/mL
IC50 [2]: 1000 ng/mL (≈ 901 nM)
P-388, Median Survival Time ([3]; 80 μg/kg/injn): 19.5 days
P-388, Median Survival Time ([3]; 160 μg/kg/injn): 21.0 days
Lewis Lung, Mean Tumor Volume ([4]; 80 μg/kg/injn): 189 mm^3
Lewis Lung, Mean Tumor Volume ([4]; 160 μg/kg/injn): 0 mm^3
B-16 Melanoma Median Survival Time Days (B-16 melanoma cells; 80 μg/kg/injn): >27.0 days
B-16 Melanoma % T/C (B-16 melanoma cells; 80 μg/kg/injn): >158%
B-16 Melanoma Median Survival Time Days (B-16 melanoma cells; 160 μg/kg/injn): >27.0 days
B-16 Melanoma % T/C (B-16 melanoma cells; 160 μg/kg/injn): >158%
immunomodulator activity [5]: powerful immunomodulator
growth of murine T-cells (murine T-cells): inhibits the growth
growth of murine B-cells (murine B-cells): inhibits the growth
immune reaction in the mixed lymphocyte reaction (murine cells): suppresses the immune reaction of murine cells

CC[C@H](C)[C@H]1NC(=O)[C@@H](NC(=O)[C@@H](CC(C)C)N(C)C(=O)[C@@H]2CCCN2C(=O)C(C)O)[C@@H](C)OC(=O)[C@H](Cc2ccc(OC)cc2)N(C)C(=O)[C@@H]2CCCN2C(=O)[C@H](CC(C)C)NC(=O)[C@@H](C)C(=O)[C@H](C(C)C)OC(=O)C[C@@H]1O (stereo partly shown) [Didemnin B]
immunosuppressive activity [6]: potent immunosuppressive activity
inhibition of binding of prolactin to human lymphocytes (human lymphocytes): more potent inhibition
